A word on the MIC: it is the least concentration at which growth counts as inhibited.

Experiment [1] concerns Mycobacterium tuberculosis variant bovis. In words: Antimycobacterial activity against pyrazinamide-resistant Mycobacterium bovis ATCC 27289 assessed as growth inhibition after 24 hrs to 2 weeks by microbroth dilution method. It counts as functional. In general terms: Dilution methods test growth across graded concentrations, often in twofold steps.
Experiment [2] shares this test system. In words: Antimycobacterial activity against pyrazinamide-resistant Mycobacterium bovis ATCC 35720 assessed as growth inhibition after 24 hrs to 2 weeks by microbroth dilution method. Type of experiment: functional.

Values after ≈ are worked out from the molar mass of the structure shown.

Turning to `NC(=O)c1cnc(Cl)cn1`, the MIC in experiment [1] and in experiment [2] was 8 µg/mL (≈ 50.8 µM) in each case.

For the origin of these results see ChEMBL document CHEMBL2396653, “Synthesis and antimycobacterial evaluation of N-substituted 5-chloropyrazine-2-carboxamides” (Bioorg Med Chem Lett, 2013).
